From ChEMBL document CHEMBL1127331, “Pyridobenzoxazepine and pyridobenzothiazepine derivatives as potential central nervous system agents: synthesis and neurochemical study” (J Med Chem, 1994)

Tests used:
[1] = target: Serotonin 2 (5-HT2) receptor (Rattus norvegicus, UniProt P30994+P08909+P14842)
Description: Binding affinity against serotonin 5-hydroxytryptamine 2 receptor

Rattus norvegicus [2] = organism: Rattus norvegicus; experiment: animal or person; settings: sc, read-out: Inhibition
Description: (§1) Inhibitory activity in apomorphine antagonism test at a dose of 20 mg/kg, sc

D(1A) dopamine receptor = D(1A) dopamine receptor (Rattus norvegicus, UniProt P18901)
Sequence of D(1A) dopamine receptor (P18901 whole entry): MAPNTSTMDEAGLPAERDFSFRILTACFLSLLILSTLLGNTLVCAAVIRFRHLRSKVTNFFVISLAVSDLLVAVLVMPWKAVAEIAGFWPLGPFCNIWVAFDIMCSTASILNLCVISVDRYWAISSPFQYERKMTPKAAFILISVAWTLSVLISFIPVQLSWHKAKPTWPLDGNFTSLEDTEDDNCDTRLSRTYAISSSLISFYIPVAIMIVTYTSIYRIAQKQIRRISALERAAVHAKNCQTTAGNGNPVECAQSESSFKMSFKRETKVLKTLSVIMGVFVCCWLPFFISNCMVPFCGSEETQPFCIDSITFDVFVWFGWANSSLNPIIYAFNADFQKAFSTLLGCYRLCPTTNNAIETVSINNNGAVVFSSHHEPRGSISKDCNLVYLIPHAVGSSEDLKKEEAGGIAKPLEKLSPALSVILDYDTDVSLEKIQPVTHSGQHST
Description: Binding affinity against dopamine receptor D1

[3] = target: Muscarinic acetylcholine receptor
Description: Binding affinity against muscarinic (M) receptor

Rattus norvegicus [4] = organism: Rattus norvegicus; experiment: animal or person; settings: sc
Description: as §1

SMILES	-Log Ki [1]	Ki (D(1A) dopamine receptor) [nM]	-Log Ki [3]	inhibition in vivo at 20 mg/kg (Rattus norvegicus [2]) [%]	ED50 (Rattus norvegicus [4]) [mg/kg]
CN1CCN(C2=Nc3cc(Cl)ccc3Nc3ccccc32)CC1 [CLOZAPINE]	–	–	–	0	–
CN1CCN(C2=Nc3cccnc3Oc3ccccc32)CC1	4.65	–	6.07	0	–
CN1CCN(C2=Nc3ccccc3Oc3ncccc32)CC1	5.85	2400	5.47	0	–
O=C(CCCN1CCC(O)(c2ccc(Cl)cc2)CC1)c1ccc(F)cc1 [HALOPERIDOL]	–	–	–	100	0.14
CN1CCN(C2=Nc3cnccc3Sc3ccccc32)CC1	6.55	15500	6.68	0	–
CN1CCN(C2=Nc3cc(F)ccc3Cc3ccccc32)CC1 [FLUPERLAPINE]	8.41	–	–	–	–
CN1CCN(C2=Nc3ccccc3Nc3ccc(Cl)cc32)CC1 [ISOCLOZAPINE]	–	–	–	–	1.7
CN1CCN(C2=Nc3ccccc3Sc3ncccc32)CC1	6.29	1620	5.61	0	–
Cc1ccc2c(c1)N=C(N1CCN(C)CC1)c1cccnc1O2	7.01	759	5.42	0	–

Further lines, with some results ahead:

-Log Ki [1]	Ki (D(1A) dopamine receptor) [nM]	-Log Ki [3]	SMILES	inhibition in vivo at 20 mg/kg (Rattus norvegicus [2]) [%]	ED50 (Rattus norvegicus [4]) [mg/kg]
5.94	8130	6.13	CN1CCN(C2=Nc3cccnc3Sc3ccccc32)CC1	0	–
9.23	–	–	CN1CCN(C2=Nc3ccccc3Sc3ccc(Cl)cc32)CC1 [CLOTHIAPINE]	100	0.72
7.35	1070	5.86	CN1CCN(C2=Nc3cccnc3Oc3ccc(Cl)cc32)CC1	100	–
8.38	–	–	CN1CCN(C2=Nc3cc(Cl)ccc3Sc3ccccc32)CC1 [ISOCLOTHIAPINE]	–	–
7.35	676	5.75	CN1CCN(C2=Nc3cccnc3Sc3ccc(Cl)cc32)CC1	100	–
7.19	302	5.65	CN1CCN(C2=Nc3cc(Cl)ccc3Oc3ncccc32)CC1	0	–
